Measurements from PMC7731667 (Journal of medicinal chemistry, 2020).

Legend:
Mouse plasma stability = format: in vitro ADME; conditions: 120 min
[1] = Mouse liver microsome stability; format: in vitro ADME; conditions: mouse liver microsomes
[2] = pH 7.4
[3] = Human liver microsome stability; format: in vitro ADME; conditions: human liver microsomes
Human plasma stability = format: in vitro ADME; conditions: 120 min
[4] = In vivo pharmacokinetics in mice; set-up: species or system mouse; conditions: for clearance: male, CD-1, mouse, plasma, iv, 10 mg/kg; for time until brain level fell below target therapeutic level: mice, single 10 mg/kg IV dose, target 30 ng/g for 11 and 13B, 120 ng/g for 12

| Compound | Mplasma stability (Mouse plasma stability) [% @ 120 min] | Hplasma stability (Human plasma stability) [% @ 120 min] | time until brain level fell below target therapeutic level [4] | other results |
| --- | --- | --- | --- | --- |
| 1-(3-(5-cyclopropyl-4-phenyl-4H-1,2,4-triazol-3-yl)propyl)-3-(2-methylcyclohexyl)urea [Compound 3] | 84 | 98 |  | t1/2 MLM [1]: 3 min; Solubility [2]: 24; t1/2 HLM [3]: 8 min |
| CC1CCCCC1NC(=O)NCCSc1nnc(C2CC2)n1-c1ccccc1 (centres unmarked) [Compound 1, 1-(2-((5-cyclopropyl-4-phenyl-4H-1,2,4-triazol-3-yl)thio)ethyl)-3-(2-methylcyclohexyl)urea, reference compound] | 94 | 95 |  | half-life at 1 μM [1]: 2 min |
| CC1CCCCC1NC(=O)NCCCc1nnc(C2CC2)n1-c1ccccc1 (centres unmarked) [Compound 2, 1-(3-(5-cyclopropyl-4-phenyl-4H-1,2,4-triazol-3-yl)propyl)-3-(2-methylcyclohexyl)urea] | 100 | 95 |  |  |
| CC1CC(O)CCC1NC(=O)NCCCCc1ccccc1 (centres unmarked) [Compound 11, 1-(4-hydroxy-2-methylcyclohexyl)-3-(4-phenylbutyl)urea] |  |  | 1 h | clearance [4]: 63.9 mL/min/kg |
| O=C(NCCCCc1ccccc1)NC1CCC(O)CC1 (centres unmarked) [Compound 12, 1-(4-hydroxycyclohexyl)-3-(4-phenylbutyl)urea] |  |  | 1 h | clearance [4]: 29.5 mL/min/kg |
| O=C(CCCCCc1ccccc1)N[C@H]1CC[C@H](O)CC1 [Compound 13B, N-(trans-4-hydroxycyclohexyl)-6-phenylhexanamide] |  |  | greater than 2 hour |  |
| N-(4-fluoro-4-methylcyclohexyl)-6-phenylhexanamide [Compound 18] |  |  |  | t1/2 MLM [1]: 2.8 min; t1/2 HLM [3]: 10.2 min |
